For data set [1] the following is noted: Garcia Fortanet et al., J Med Chem 2016; cited from earlier work.
In data set [2] the test system is renal fibrosis induced by carbon tetrachloride. To be noted: Kostallari et al., 2018; cited from earlier work.
A further data set deals with Obese diabetic mice. The data set can be described thus: OGTT in obese diabetic mice after chronic SHP2 inhibition. The note with it: gavage 50 mg/kg/day.
Where [3] appears, read: after 15 days of treatment, compared to control.

Here are results for 1 molecule from patent US20250090529A1, “USE OF SHP2 INHIBITORS FOR THE TREATMENT OF INSULIN RESISTANCE” (INSERM (INSTITUT NATIONAL DE LA SANTÉ ET DE LA RECHERCHE …, priority 2018, published 2025).

Structures are written as SMILES.

Method for Obese diabetic mice: Obese diabetic mice were treated by gavage (50 mg/kg/day). After 15 days of treatment an OGTT was performed (FIG. 1).

As to `CC1(N)CCN(c2cnc(-c3cccc(Cl)c3Cl)c(N)n2)CC1` [SHP099, 6-(4-amino-4-methylpiperidin-1-yl)-3-(2,3-dichlorophenyl)pyrazin-2-amine], in data set [1], the oral bioavailability entry is “good” and the tolerance result was “good tolerance”. The “effectiveness in treatment of renal fibrosis” value in data set [2] is recorded as “effectiveness in treatment of renal fibrosis”. In addition, in the data set with Obese diabetic mice (15 days of treatment), the body composition result is on record as “without any change” and the weight entry is reported as “without any change”. Moreover, in the data set with Obese diabetic mice (setting [3]), the fasting blood glucose result was “decreased fasting blood glucose” and the “glucose tolerance (OGTT)” value is “significant improvement in the glucose tolerance”.
